As usually defined, the IC50 is the concentration that gives 50% inhibition.

The test deals with T1, human PAD4 (Homo sapiens, UniProt Q9UM07).
T1 construct: human PAD4 (NM_012387), A2P663, was PCR amplified; His-SUMO (N, cleaved yes); made in house; host or cells: E. coli BL21(DE3)
T1 sequence (Q9UM07 2-663): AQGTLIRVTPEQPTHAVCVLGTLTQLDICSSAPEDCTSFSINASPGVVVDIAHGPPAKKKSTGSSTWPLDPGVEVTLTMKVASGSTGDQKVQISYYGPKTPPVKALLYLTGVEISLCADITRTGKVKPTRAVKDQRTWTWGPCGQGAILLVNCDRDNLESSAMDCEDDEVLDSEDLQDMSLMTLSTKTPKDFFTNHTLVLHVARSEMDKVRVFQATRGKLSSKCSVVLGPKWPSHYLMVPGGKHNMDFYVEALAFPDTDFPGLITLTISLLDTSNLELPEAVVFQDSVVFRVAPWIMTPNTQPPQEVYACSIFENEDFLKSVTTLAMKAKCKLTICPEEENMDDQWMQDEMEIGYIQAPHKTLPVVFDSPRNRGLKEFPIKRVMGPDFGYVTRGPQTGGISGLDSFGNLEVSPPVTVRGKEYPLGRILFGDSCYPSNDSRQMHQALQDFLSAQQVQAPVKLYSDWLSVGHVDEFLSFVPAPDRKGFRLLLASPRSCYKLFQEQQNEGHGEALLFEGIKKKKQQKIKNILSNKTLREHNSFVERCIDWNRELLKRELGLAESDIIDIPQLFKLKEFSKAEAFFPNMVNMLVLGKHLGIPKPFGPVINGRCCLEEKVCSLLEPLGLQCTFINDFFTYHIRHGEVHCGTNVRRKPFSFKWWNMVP
The test can be described thus: In vitro PAD4 BAEE biochemical assay. Conditions: human PAD4, BAEE substrate; 5 nM PAD4, 2 mM calcium chloride, 3 mM BAEE; geometric mean of multiple experiments. A digest of the protocol:
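Ammonia release from BAEE deimination monitored by o-phthalaldehyde amine coupling (1 h, 25 °C) after EDTA stop. Final conditions: 5 nM tag-free recombinant human PAD4 (E. coli), 2 mM CaCl2, 3 mM BAEE, pH 7.6 MOPS with DTT; 30 min compound preincubation, then 2 h reaction at 25 °C.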
In the case of `COc1cc(C(=O)N2[C@H]3CC[C@@H]2[C@H](N)C3)cc2nc(-c3cc4ccc(C(C)(C)N)nc4n3CC3CC3)c(C)n12` [Example 570, [(1~{R},2~{R},4~{S})-2-amino-7-azabicyclo [2.2.1]heptan-7-yl]-[2-[6-(2-aminopropan-2-yl)-1-(cyclopropylmethyl)pyrrolo [2,3-b]pyridin-2-yl]-5-methoxy-3-methylimidazo[1,2-a]pyridin-7-yl]methanone], the IC50 was determined as 227 nM.
As for `COc1cc(C(=O)N2[C@H]3CC[C@@H]2[C@H](N)C3)cc2nc(-c3cc4ccc([C@@H](C)NC(=O)c5ccccc5)nc4n3CC3CC3)c(C)n12` [Example 176], the half-inhibitory concentration (IC50) was found to be 88.7 nM.
Next, `COc1cc(C(=O)N2[C@H]3CC[C@@H]2[C@H](N)C3)cc2nc(-c3cc4ccc(C(C)CN5CCOCC5)nc4n3CC3CC3)c(C)n12` (stereo partly shown) [Example 543, [(1~{R},2~{R},4~{S})-2-amino-7-azabicyclo [2.2.1]heptan-7-yl]-[2-[1-(cyclopropylmethyl)-6-(1-morpholin-4-ylpropan-2-yl)pyrrolo[2,3-b]pyridin-2-yl]-5-methoxy-3-methylimidazo [1,2-a]pyridin-7-yl] methanone]: 108 nM.
The same measure for `COc1cc(C(=O)N2[C@H]3CC[C@@H]2[C@H](N)C3)cc2nc(-c3cc4ccc(C(C)CC(=O)N5CC(F)(F)C5)nc4n3CC3CC3)c(C)n12` (stereo partly shown) [Example 519, 3-[2-[7-[(1~{R},2~{R}, 4~{S})-2-amino-7-azabicyclo[2.2.1]heptane-7-carbonyl]-5-methoxy-3-methylimidazo[1,2-a]pyridin-2-yl]-1-(cyclopropylmethyl)pyrrolo[2,3-b]pyridin-6-yl]-1-(3,3-difluoroazetidin-1-yl) butan-1-one]: 101 nM.
Next, `COc1cc(C(=O)N2[C@H]3CC[C@@H]2[C@H](N)C3)cc2nc(-c3cc4ccc(C(C)(C)O)nc4n3CC3CC3)c(C)n12` [Example 574, [(1~{R},2~{R},4~{S})-2-amino-7-azabicyclo [2.2.1]heptan-7-yl]-[2-[1-(cyclopropylmethyl)-6-(2-hydroxypropan-2-yl)pyrrolo [2,3-b]pyridin-2-yl]-5-methoxy-3-methylimidazo[1,2-a]pyridin-7-yl]methanone]: 110 nM; `COc1cc(C(=O)N2[C@H]3CC[C@@H]2[C@H](N)C3)cc2nc(-c3cc4ccc([C@@H](C)NC(=O)C5CC(O)(C(F)(F)F)C5)nc4n3CC3CC3)c(C)n12` (stereo partly shown) [Example 45, ~{N}-[(1~{R})-1-[2-[7-[(1~{R},2~{R},4~{S})-2-amino-7-azabicyclo[2.2.1]heptane-7-carbonyl]-5-methoxy-3-methylimidazo [1,2-a]pyridin-2-yl]-1-(cyclopropylmethyl)pyrrolo[2,3-b]pyridin-6-yl]ethyl]-3-hydroxy-3-(trifluoromethyl) cyclobutane-1-carboxamide]: 25.1 nM; `COc1cc(C(=O)N2[C@H]3CC[C@@H]2[C@H](N)C3)cc2nc(-c3cc4ccc([C@@H](C)NC(=O)C(C)(C)C(=O)O)nc4n3CC3CC3)c(C)n12` [Example 155, 3-[[(1~{R})-1-[2-[7-[(1~{R},2~{R},4~{S})-2-amino-7-azabicyclo[2.2.1]heptane-7-carbonyl]-5-methoxy-3-methylimidazo [1,2-a]pyridin-2-yl]-1-(cyclopropylmethyl)pyrrolo [2,3-b]pyridin-6-yl]ethyl]amino]-2,2-dimethyl-3-oxopropanoic acid]: 45.5 nM.
As to `COc1cc(C(=O)N2[C@H]3CC[C@@H]2[C@H](N)C3)cc2nc(-c3cc4ccc([C@@H](C)NC(=O)N5CC[C@H](F)C5)nc4n3CC3CC3)c(C3CC3)n12` [Example 216, (3~{S})-~{N}-[(1~{R})-1-[2-[7-[(1~{R},2~{R}, 4~{S})-2-amino-7-azabicyclo[2.2.1]heptane-7-carbonyl]-3-cyclopropyl-5-methoxyimidazo [1,2-a]pyridin-2-yl]-1-(cyclopropylmethyl)pyrrolo [2,3-b]pyridin-6-yl]ethyl]-3-fluoropyrrolidine-1-carboxamide], the IC50 amounted to 48.3 nM.
As to `COc1cc(C(=O)N2[C@@H]3CCC[C@H]2[C@@H](N)C3)cc2nc(-c3cc4ccc(N(C(F)F)S(C)(=O)=O)nc4n3CC3CC3)c(C)n12` [Example 331, N-[2-[7-[(1R,5S,6S)-6-amino-8-azabicyclo[3.2.1]octane-8-carbonyl]-5-methoxy-3-methyl-imidazo [1,2-a]pyridin-2-yl]-1-(cyclopropylmethyl)pyrrolo [2,3-b]pyridin-6-yl]-N-(difluoromethyl) methanesulfonamide], the concentration for half-maximal inhibition (IC50) was found to be 1420 nM.
Next, `COc1cc(C(=O)N2[C@H]3CC[C@@H]2[C@H](N)C3)cc2nc(-c3cc4ccc(C5CCN(C(=O)N6CCCC6)C5)nc4n3CC3CC3)c(C)n12` (stereo partly shown) [Example 529, [(1~{R},2~{R},4~{S})-2-amino-7-azabicyclo [2.2.1]heptan-7-yl]-[2-[1-(cyclopropylmethyl)-6-[1-(pyrrolidine-1-carbonyl)pyrrolidin-3-yl]pyrrolo [2,3-b]pyridin-2-yl]-5-methoxy-3-methylimidazo [1,2-a]pyridin-7-yl] methanone]: 151 nM; `COc1cc(C(=O)N2[C@H]3CC[C@@H]2[C@H](N)C3)cc2nc(-c3cc4ccc(C(C)CC#N)nc4n3CC3CC3)c(C)n12` (stereo partly shown) [Example 557, 3-[2-[7-[(1~{R},2~{R}, 4~{S})-2-amino-7-azabicyclo[2.2.1]heptane-7-carbonyl]-5-methoxy-3-methylimidazo[1,2-a]pyridin-2-yl]-1-(cyclopropylmethyl)pyrrolo [2,3-b]pyridin-6-yl] butanenitrile]: 77.7 nM; `COc1cc(C(=O)N2CCC[C@@H](N)C2)cc2nc(-c3cc4ccc([C@@H](C)NC(=O)N(C)C)nc4n3CC3CC3)c(C)n12` [Example 253, 3-[(1~{R})-1-[2-[7-[(3~{R})-3-aminopiperidine-1-carbonyl]-5-methoxy-3-methylimidazo[1,2-a]pyridin-2-yl]-1-(cyclopropylmethyl)pyrrolo [2,3-b]pyridin-6-yl]ethyl]-1,1-dimethylurea]: 135 nM.
`Cc1cc(C(=O)N2CCC[C@@H](N)C2)cc2nc(-c3cc4ccc(N(C(F)F)S(C)(=O)=O)nc4n3CC3CC3)c(C)n12` [Example 426, ~{N}-[2-[7-[(3~{R})-3-aminopiperidine-1-carbonyl]-3,5-dimethylimidazo [1,2-a]pyridin-2-yl]-1-(cyclopropylmethyl)pyrrolo [2,3-b]pyridin-6-yl]-~{N}-(difluoromethyl) methanesulfonamide]: the IC50 is 125 nM.
Next, `COc1cc(C(=O)N[C@H]2CNCC[C@H]2C)cc2nc(-c3cc4ccc(N(C(F)F)S(C)(=O)=O)nc4n3CC3CC3)c(C)n12` [Example 313, 2-[1-(cyclopropylmethyl)-6-[difluoromethyl (methylsulfonyl)amino]pyrrolo[2,3-b]pyridin-2-yl]-5-methoxy-3-methyl-~{N}-[(3~{R},4~{R})-4-methylpiperidin-3-yl]imidazo[1,2-a] pyridine-7-carboxamide]: 24200 nM; `COc1cc(C(=O)N2[C@H]3CC[C@@H]2[C@H](N)C3)cc2nc(-c3cc4ccc([C@@H](C)NC(=O)NCc5ccncc5)nc4n3CC3CC3)c(C)n12` [Example 223, 1-[(1~{R})-1-[2-[7-[(1~{R},2~{R},4~{S})-2-amino-7-azabicyclo[2.2.1]heptane-7-carbonyl]-5-methoxy-3-methylimidazo [1,2-a]pyridin-2-yl]-1-(cyclopropylmethyl)pyrrolo [2,3-b]pyridin-6-yl]ethyl]-3-(pyridin-4-ylmethyl)urea]: 77.3 nM; `COc1cc(C(=O)N2C[C@H]3CCCN[C@H]3C2)cc2nc(-c3cc4ccc([C@@H](C)NC(=O)c5ccccc5)nc4n3CC3CC3)c(C)n12` [Example 58, ~{N}-[(1~{R})-1-[2-[7-[(4~{a}~{R}, 7~{a}~{R})-1,2,3,4,4~{a},5,7,7~{a}-octahydropyrrolo[3,4-b]pyridine-6-carbonyl]-5-methoxy-3-methylimidazo[1,2-a]pyridin-2-yl]-1-(cyclopropylmethyl)pyrrolo[2,3-b]pyridin-6-yl]ethyl]benzamide]: 771 nM.
As for `CCc1cc(C(=O)N2CCC[C@@H](N)C2)cc2nc(-c3cc4ccc(N(C(F)F)S(C)(=O)=O)nc4n3CC3CC3)c(C)n12` [Example 427, ~{N}-[2-[7-[(3~{R})-3-aminopiperidine-1-carbonyl]-5-ethyl-3-methylimidazo [1,2-a]pyridin-2-yl]-1-(cyclopropylmethyl)pyrrolo [2,3-b]pyridin-6-yl]-~{N}-(difluoromethyl) methanesulfonamide], the IC50 came to 94.7 nM.
As to `COc1cc(C(=O)N2[C@H]3CC[C@@H]2[C@H](N)C3)cc2nc(-c3cc4ccc([C@@H](C)Nc5cnn(C(C)(C)C)c5)nc4n3CC3CC3)c(C)n12` [Example 260, [(1~{R},2~{R},4~{S})-2-amino-7-azabicyclo[2.2.1]heptan-7-yl]-[2-[6-[(1~{R})-1-[(1-~{tert}-butylpyrazol-4-yl)amino]ethyl]-1-(cyclopropylmethyl)pyrrolo [2,3-b]pyridin-2-yl]-5-methoxy-3-methylimidazo [1,2-a]pyridin-7-yl] methanone], the half-maximal inhibitory concentration (IC50) came to 122 nM.
The same measure for `COc1cc(C(=O)N2[C@H]3CC[C@@H]2[C@H](N)C3)cc2nc(-c3cc4ccc([C@@H](C)NC(=O)C5(F)CC5)nc4n3CC3CC3)c(C)n12` [Example 136, ~{N}-[(1~{R})-1-[2-[7-[(1~{R},2~{R},4~{S})-2-amino-7-azabicyclo[2.2.1]heptane-7-carbonyl]-5-methoxy-3-methylimidazo [1,2-a]pyridin-2-yl]-1-(cyclopropylmethyl)pyrrolo [2,3-b]pyridin-6-yl]ethyl]-1-fluorocyclopropane-1-carboxamide]: 143 nM.

The values are drawn from patent US12240862B2, “Inhibitors of peptidylarginine deiminases” (Gilead Sciences, Inc., priority 2020, dated 2025).
